Laboratory results reported in patent US7371780B2, “Use of calphostin C to treat drug-resistant tumor cells” (priority 2003, dated 2008).

Assays:
[1] = system: MCF-7 cells; assay: Flow cytometric sub-G1 DNA content, MCF-7; type: cell-based, human; details: 100 nM calphostin C, 2 h light
Method: For flow cytometric analysis, cells at about 50% to 60% confluence were released from their flasks by trypsin treatment and washed with PBS. After centrifugation at 1000 rpm for 5 min, cells were then fixed by resuspension in 75% ethanol for 2 hours, collected by centrifugation, and resuspended in PI staining solution (see above) for 1 h. For each sample, approximately 2×10^4 cells were analyzed using a Beckman Coulter Epics® Elite flow cytometer. Fluorescence intensity upon stimulation with an argon-ion laser at 488 nm was measured using the PMT4 channel (625DL filter) and plotted against cell number. The percentage of cells with a sub-G1 DNA content was determined by the flow cytometer, adjusting the gates such that only cells with a fluorescence lower than the peak for untreated cells in G1 are counted (see FIG. 4).

[2] = system: caspase-8, PARP and cytochrome C in MCF-7 cells; assay: Immunoblotting of apoptosis markers, MCF-7; type: cell-based, human
Method: For preparation of mitochondrial and cytoplasmic cellular fractions, MCF-7, MCF-7TAX, and MCF-7DOX cells were grown in a monolayer to 70-90% confluence on 10 cm tissue culture plates. Twenty-four hours prior to extraction, the cells were treated with 50 nM light-activated calphostin C as described above. After this treatment, the cells were trypsinized, centrifuged at 1000 rpm in a Beckman GP centrifuge and washed with PBS. To the resulting cell pellet, 1 ml of ice-cold homogenization (HM) buffer was added. This buffer consisted of 85.55 g sucrose, 1.406 g MOPS, 0.292 g EDTA, and 1 ml ethanol per liter of solution, with a final pH of 7.2. Prior to use, 0.2 ml of 0.1 M PMSF, 1 Complete™ protease inhibitor tablet (Roche Diagnostics, Laval, QC), and 20 μl of 1 M DTT was added for 100 ml of HM buffer. Cells were then lysed 10 times by homogenization in a 2 ml dounce homogenizer. Nuclei in the lysate were then pelleted by centrifugation in a microfuge tube at 70 g for 10 minutes at 4° C. and the supernatant carefully removed. The supernatant was clarified by centrifugation at 1950 g for 10 minutes at 4° C. and the pellet (containing mitochondria) was resuspended in 50 μl of HM buffer. The remaining clarified supernatant was deemed the cytoplasmic fraction. […]

[3] = system: MCF-7DOX cells; assay: Drug uptake, MCF-7DOX; type: cell-based, human
Method: FIG. 5 illustrates the effect of calphostin C (Cal-C) on drug uptake in MCF-7 (square symbols), MCF-7TAX (diamond symbols) and MCF-7DOX (triangular symbols) cells. After one-day growth, the cells were left untreated (closed symbols) or treated with 100 nM calphostin C for 2 h with light activation (open symbols). Cells were then washed and the medium replaced with medium containing 2 μM of doxorubicin (A) or [^3H]-paclitaxel (B). The cells were then trypsinized and drug accumulation measured by flow cytometry (A) or liquid scintillation counting (B) at indicated time points. The figures are representative of three independent experiments.

[4] = system: Chinese hamster ovary (CHO) cells; assay: Death and cytoplasmic vacuolization, CHO; type: cell-based; details: data not shown

Structure (SMILES): COc1c(C[C@@H](C)OC(=O)Oc2ccc(O)cc2)c2c3c(C[C@@H](C)OC(=O)c4ccccc4)c(OC)c(=O)c4c(O)cc(OC)c(c5c(OC)cc(O)c(c1=O)c52)c43 [calphostin C]
- time of strong increase in percentage of sub-G1 cells after treatment [1]: 8 h
- caspase-8 and PARP cleavage (protein levels) ([2]; light-activated calphostin C, whole cell extracts): did not result in any change
- release of cytochrome C from mitochondria ([2]; mitochondrial and cytoplasmic fractions): no clear evidence for the release of cytochrome C
- effect on paclitaxel uptake ([3]; 100 nM calphostin C): little effect
- effect on doxorubicin uptake ([3]; 100 nM calphostin C 2 h with light, then 2 μM doxorubicin): little ability to re-establish doxorubicin uptake
- induction of death and cytoplasmic vacuolization [4]: induce both death and cytoplasmic vacuolization
